Reference: paper PMC9822155, “Synthesis and Antiproliferative Activity against Cancer Cells of Indole-Aryl-Amide Derivatives” (Molecules, 2022)

How the values were obtained:
[1] = tested on: IGROV-1 (human ovarian carcinoma) cells; test: MTT viability assay, IGROV-1; assay type: cell-based; details: 24 h
Text: (§1) To investigate whether the compounds have an antitumor activity, we performed in vitro viability assays against a panel of cancer cell lines: HT29 (human colorectal adenocarcinoma), HeLa (human cervical carcinoma), IGROV-1 (human ovarian carcinoma), MCF7 (human breast cancer), PC-3 (human prostate adenocarcinoma), and Jurkat J6 (human […]). The I407 (human embryonic intestinal) and 3T3 (mouse embryonic fibroblast) cells were used as controls. The growth inhibitory concentration was determined by incubating the cells with increasing concentrations (0.01–500 μM) of the compounds for 24 h. Data obtained from cell growth assays were elaborated to assess the concentration of cell viability (IC50) and selectivity indices (SI), and the results are shown in Table 2 and Table 3, respectively.
(§2) HT29 human colorectal adenocarcinoma cells, HeLa human cervix adenocarcinoma cells, MCF7 human breast adenocarcinoma cells, PC-3 human prostate adenocarcinoma cells, J6 Jurkat Clone E6-1 acute T cell leukemia, the healthy I407 human intestine cells, and mouse embryonic fibroblast 3T3 fibroblasts as controls cell lines were purchased from American Type Culture Collection (ATCC, Manassas, VA). The human ovarian cancer cell line IGROV1 has been kindly provided by Prof. Colnaghi (Istituto Nazionale Tumori (IRCCS) (Milano, Italy). Cells were cultured in RPMI 1640 medium (Labtek Eurobio, Milan, Italy), supplemented with 10% FCS (Euroclone, Milano, Italy) and 2 mM L-glutamine (Sigma-Aldrich, Milano, Italy), at 37 °C, and a 5% CO2 atmosphere. The compounds were dissolved in DMSO in a 30–40 mM stock solution. In cell treatments, the final DMSO concentration never exceeded 0.1%.
(§3) Cells were seeded at 1.5 × 10^4 cells/well in a 96-well culture plastic plate (Sarsted, Milan, Italy), and after 24 h of growth were exposed to increasing concentrations of each distinct compound (from 0.010 μM to 500 μM) solubilized in RPMI 1640 medium. MTT assay was performed according to the literature. In brief, after 24 h of treatment, the culture medium was replaced with 0.1 mL of 3-(4,5-dimethylthiazolyl-2)-2,5-diphenyltetrazolium bromide (MTT, Sigma-Aldrich, Milano, Italy) dissolved in PBS at the concentration of 0.2 mg/mL, and samples were incubated for 2 h at 37 °C. The absorbance at 570 nm was measured using a multiwell plate reader (Tecan, Männemorf, Switzerland), and data were analyzed by Prism GraphPad software, and expressed as IC50 μM.

κ-OR = molecular target: T1, κ-OR (Homo sapiens, UniProt P41145); test: Radioligand binding assay, κ-OR ([3H]U-69593 displacement); details: [3H]U-69593, membranes of CHO cells with human recombinant OR; ± SEM (n ≥ 3)
T1 construct: purchased PerkinElmer (Krakow, Poland); host or cells: CHO cells (membranes)
Method: (§4) In order to evaluate the affinity of the compounds for μ-, δ-, κ-ORs, radioligand binding assays were performed. Displacement of radioligands, [^3H]DAMGO (μ-OR selective), [^3H]deltorphin-2 (δ-OR selective), and [^3H]U-69593 (κ-OR selective) by the synthetic analogs was investigated in the commercial membranes of CHO cells transfected with human recombinant ORs. […] Due to the modest receptor affinities, the functional activity of the compounds was not investigated.
(§5) Opioid radioligands, [^3H]DAMGO, [^3H]deltorphin-2 and [^3H]U-69593, and human recombinant opioid receptors came from PerkinElmer (Krakow, Poland). GF/B glass fiber strips were purchased from Whatman (Brentford, UK).
(§6) To determine the affinity of peptide analogs at the respective receptors, competition binding experiments were performed. Commercial membranes of CHO cells stably expressing human opioid receptors and the competing radioligands, [^3H]DAMGO, [^3H]deltorphin-2, and [^3H]U-69593 for μ-OR, δ-OR, and κ-OR, respectively, were used. Membranes were incubated in 0.5 mL volume of 50 mM Tris/HCl (pH = 7.4), 0.5% bovine serum albumin (BSA), with a number of peptidase inhibitors (bacitracin, bestatin, captopril) and various concentrations of radioligands for 2 h at 25 °C. Non-specific binding was assessed in the presence of […]. Three independent experiments for each assay were carried out in duplicate. The data were analyzed by a nonlinear least square regression analysis computer program Graph Pad PRISM 6.0 (Graph Pad Software Inc., San Diego, CA, USA). The IC50 values were determined from the logarithmic concentration-displacement curves, and the values of the inhibitory constants (Ki) were calculated according to the equation of Cheng and Prusoff.

δ-OR = molecular target: T2, δ-OR (Homo sapiens, UniProt P41143); test: Radioligand binding assay, δ-OR ([3H]deltorphin-2 displacement); details: [3H]deltorphin-2, membranes of CHO cells with human recombinant OR; ± SEM (n ≥ 3)
T2 construct: purchased PerkinElmer (Krakow, Poland); host or cells: CHO cells (membranes)
Method: as §4, §5, §6

[2] = tested on: MCF7 (human breast cancer) cells; test: MTT viability assay, MCF7; assay type: cell-based; details: Homo sapiens, MCF7; MTT, 24 h
Text: as §1, §2, §3

[3] = tested on: HeLa (human cervical carcinoma) cells; test: MTT viability assay, HeLa; assay type: cell-based; details: Homo sapiens; MTT, 24 h
Text: as §1, §2, §3

[4] = tested on: p27, p21 and Bax proteins in HT29 cells; test: Western blot of p27, p21, Bax proteins; assay type: cell-based, human; details: HT29, 5 μM, 24 h
Method: P27, p21, and Bax proteins expressions were analysed by western blot in control HT29 and treated with 5 μM of 5 for 24 h.
HT29 cells were seeded in 25 cm^2 flasks at a density of 2 × 10^4 cells/cm^2, and after 24 h, they were treated with 5 μM of compound 5. After 24 h, both treated and control cells were washed twice with PBS and lysed in RIPA buffer [50 mMTris/HCl, 150 mMNaCl, SDS (1% v/v), Triton X-100 (1% v/v), 1 mM EDTA, pH 7.6]. Cell lysates were centrifuged at 12,000× g for 20 min, and the protein concentration was determined by using the Bio-Rad protein assay method (Bio-Rad, Hercules, CA, USA). The proteins were detected resolving samples on a 12% gel in Tris-Glycine buffer at 200 V for 50 min. Western Blot was performed in transfer buffer at 100 V for 1 h. The nitrocellulose membrane was incubated with primary antibodies for rabbit anti-p21 (Millipore, Billerica, MA, USA) or rabbit anti-p27 (Millipore, Billerica, MA) or mouse anti-Bax (Millipore, Billerica, MA, USA) or mouse anti-α tubulin (Invitrogen, Walthman, MA, USA) for 1 h. Detection of immunoreactive bands was performed by using a rabbit or mouse HRP-conjugated secondary antibody (GE Healthcare, Milan, Italy), followed by Amersham ECL Plus Western Blotting Detection System (GE Healthcare, Milan, Italy). Densitometry analysis of immunoreactive bands was done by Fluor-S Max MultiImager (Bio-Rad, Hercules, CA, USA). Relative quantification of bands was performed by using an α-tubulin signal as control.

[5] = tested on: HT29 (human colorectal adenocarcinoma) cells; test: MTT viability assay, HT29; assay type: cell-based
Text: as §1, §2, §3

T1 sequence (P41145 whole entry): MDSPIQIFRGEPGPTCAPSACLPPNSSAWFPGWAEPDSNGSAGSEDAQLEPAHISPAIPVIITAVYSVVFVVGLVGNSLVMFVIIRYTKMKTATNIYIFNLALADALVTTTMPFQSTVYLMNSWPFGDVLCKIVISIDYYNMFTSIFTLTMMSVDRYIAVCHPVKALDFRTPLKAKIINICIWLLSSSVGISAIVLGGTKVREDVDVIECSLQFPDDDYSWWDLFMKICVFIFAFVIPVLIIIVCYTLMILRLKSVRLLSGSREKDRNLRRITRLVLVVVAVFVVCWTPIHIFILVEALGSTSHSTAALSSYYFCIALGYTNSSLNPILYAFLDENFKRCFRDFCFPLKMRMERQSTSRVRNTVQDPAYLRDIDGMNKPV
T2 sequence (P41143 whole entry): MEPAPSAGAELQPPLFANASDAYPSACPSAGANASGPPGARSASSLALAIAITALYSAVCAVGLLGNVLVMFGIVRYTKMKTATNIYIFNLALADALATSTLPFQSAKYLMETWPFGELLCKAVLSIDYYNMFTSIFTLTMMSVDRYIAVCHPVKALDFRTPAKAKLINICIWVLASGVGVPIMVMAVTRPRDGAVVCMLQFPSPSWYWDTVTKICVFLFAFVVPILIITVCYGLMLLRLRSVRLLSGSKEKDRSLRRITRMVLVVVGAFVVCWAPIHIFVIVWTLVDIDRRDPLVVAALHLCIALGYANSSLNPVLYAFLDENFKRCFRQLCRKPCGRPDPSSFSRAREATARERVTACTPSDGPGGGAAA

IC50 [1]: > 500 µM
Ki (κ-OR): 3.8 ± 0.52 µM
Ki (µM) κ-OR (κ-OR): low μM range
Ki (δ-OR): 10.8 ± 1.3 µM
IC50 [2]: > 500 µM
IC50 [3]: > 500 µM
IC50 ([5]; Homo sapiens, HT-29, MTT, 24 h): 2.61 ± 0.05 µM
Compound: Nc1ccc(CN(Cc2ccc(O)cc2)C(=O)Cc2c[nH]c3ccccc23)cc1 [Compound 5]
Bax protein expression [4]: increase
p21 protein expression [4]: increase
p27 protein expression [4]: did not modify the expression
Selectivity Index IC503T3/ IC50HT29 ([5]; 3T3 normal cells as reference): 12.26
